Measured values as given in paper PMC12867150, “A fungi-derived cyclic peptide enhances Th9-mediated antitumor immunity by targeting ZAP70 and SREBP1” (The Journal of Clinical Investigation, 2025).
Several values for one entry are separate records, joined by “and”; a condition that tells them apart may be missing. Identical values can stand only once.

Tests used:
[1] = tested on: chromatin accessibility in Th9 cells; assay: Bulk ATAC-seq of Th9 cells (Figure 3C, S3E); type: cell-based, mouse; settings: result in words
From the text: Raw FASTQ reads were subjected to quality control using Trim Galore to remove adapter sequences and low-quality bases. Cleaned reads were aligned to the GRCm38 mouse reference genome using Bowtie2. Low-quality alignments were filtered out using SAMtools, and PCR duplicates were removed using Sambamba to reduce technical artifacts. ENCODE blacklist regions were excluded using BEDtools. Read positions were adjusted using alignmentSieve, followed by sorting and indexing with SAMtools to generate BAM files. Peak calling was conducted using MACS3 to identify regions of open chromatin indicative of accessible regulatory elements.

Treg cells = assay: Treg polarization, Foxp3 by flow cytometry (Figure 1I); type: cell-based, mouse
Description: Naive CD4^+ T cells were isolated from the spleens of C57BL/6J or CD45.1^+ OT-II mice using the MojoSort Mouse CD4 Naive T Cell Isolation Kit (BioLegend, catalog 480040), following the manufacturer’s protocol. Purified cells were cultured in RPMI-1640 medium supplemented with 10% FBS, 1% penicillin-streptomycin, and 0.1% β-mercaptoethanol (Gibco, catalog 21985023).
T cell polarization was initiated under plate-bound anti-CD3 (2 μg/mL, clone 17A2, BioXCell, catalog BE0002) and soluble anti-CD28 (1 μg/mL, clone 37.51, BioXCell, catalog BE0015-1) stimulation, with the addition of cytokines and neutralizing antibodies specific to each subset. For Th9 cells, these included IL-4 (10 ng/mL, Peprotech, catalog 400-04), TGF-β (1 ng/mL, EPOTO Biotech, catalog HF-2021), anti–IL-12 (5 μg/mL, clone C17.8, BioXCell, catalog BE0051), and anti–IFN-γ (10 μg/mL, clone XMG1.2, BioXCell, catalog BE0055); for Th1 cells, these included IL-12 (10 ng/mL, GenScript, catalog Z03211-50) and anti–IL-4 (5 μg/mL, clone 11B11, BioXCell, catalog BE0045); for Th2 cells, these included IL-4 (50 ng/mL), anti–IFN-γ (20 μg /mL), anti–IL-12 (5 μg/mL), Th17 cells: IL-6 (20 ng/mL, EPOTO Biotech, catalog MF-1006), TGF-β (1 ng/mL), IL-1β (10 ng/mL, Peprotech, catalog AF-211-11B), anti–IFN-γ (10 μg/mL), anti–IL-12 (5 μg/mL), and anti–IL-4 (5 μg/mL); and for Tregs, these included TGF-β (3 ng/mL). […]

anteiso-C15 Leu7 surfactin [EpA] was tested, and the “Ifng accessibility and expression” value [1] was “further reduced”, the “Il9 locus accessibility and transcription” value [1] was “increased accessibility and transcription” and the global chromatin accessibility [1] was “only modestly affected”. For the same substance, the “Foxp3 expression under Treg polarization” value (Treg cells; EpA 10 μM, individual replicates, n = 4) was 47.3 and 45.9 and 45.6 and 47.5 and the “effect on Treg polarization” value (Treg cells; result in words) was “did not affect”.
